# Laboratory results from patent US6911446B2, “Methods of modulating serine/threonine protein kinase function with quinazoline-based compounds” (Sugen, Inc., priority 1997, dated 2005).
# pIC50: −log10 of the molar value. Values joined by “and” are separate entries in the source; they are usually repeats but may differ in a detail not shown here. Identical values can stand only once.
# How the values were obtained:
# RAF-1 = target: T1, RAF-1 (Homo sapiens, UniProt P04049); assay: RAF-1 ELISA phosphorylation assay (RAF-catalyzed phosphorylation of MEK and MAPK); format: biochemical; details: RAF-1 phosphorylation assay, lysates from RAS/RAF infected Sf9 cells, substrates T-MEK and His-MAPK
# T1 construct: made in house; host or cells: Sf9 (Spodoptera frugiperda) cells co-infected with RAS and RAF recombinant baculoviruses
# T1 sequence (P04049 whole entry): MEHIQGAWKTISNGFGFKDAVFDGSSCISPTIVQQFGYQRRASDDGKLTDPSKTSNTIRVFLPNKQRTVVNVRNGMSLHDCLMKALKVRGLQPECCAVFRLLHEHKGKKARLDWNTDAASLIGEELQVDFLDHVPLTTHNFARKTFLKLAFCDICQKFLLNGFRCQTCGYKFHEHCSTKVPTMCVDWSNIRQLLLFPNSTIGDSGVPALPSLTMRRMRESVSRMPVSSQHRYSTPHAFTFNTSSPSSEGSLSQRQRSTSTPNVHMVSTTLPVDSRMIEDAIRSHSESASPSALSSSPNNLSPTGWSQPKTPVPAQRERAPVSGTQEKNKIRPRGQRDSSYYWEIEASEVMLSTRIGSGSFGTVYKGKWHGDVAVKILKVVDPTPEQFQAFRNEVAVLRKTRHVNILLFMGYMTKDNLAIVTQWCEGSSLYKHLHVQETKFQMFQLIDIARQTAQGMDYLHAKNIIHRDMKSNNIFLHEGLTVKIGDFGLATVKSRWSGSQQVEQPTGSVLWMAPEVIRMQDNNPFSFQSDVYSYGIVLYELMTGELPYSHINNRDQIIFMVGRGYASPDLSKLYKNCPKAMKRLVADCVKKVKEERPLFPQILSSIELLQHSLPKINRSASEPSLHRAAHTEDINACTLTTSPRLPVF
# Excerpt: The following assay reports the amount of RAF-catalyzed phosphorylation of its target protein MEK as well as MEK's target MAPK. The RAF gene sequence is described in Bonner et al., 1985, Molec. Cell. Biol. 5: 1400-1407, and is readily accessible in multiple gene sequence data banks. Construction of the nucleic acid vector and cell lines utilized for this portion of the invention are fully described in Morrison et al., 1988, Proc. Natl. Acad. Sci. USA 85: 8855-8859.
# • 1. Sf9 (Spodoptera frugiperda) cells; GIBCO-BRL, Gaithersburg, Md. • 2. RIPA buffer: 20 mM Tris/HCl pH 7.4, 137 mM NaCl, 10% glycerol, 1 mM PMSF, 5 mg/L Aprotenin, 0.5% Triton X-100; • 3. Thioredoxin-MEK fusion protein (T-MEK): T-MEK expression and purification by affinity chromatography were performed according to the manufacturer's procedures. Catalog#K 350-01 and R 350-40, Invitrogen Corp., San Diego, Calif. • 4. His-MAPK (ERK 2); His-tagged MAPK was expressed in XL1 Blue cells transformed with pUC18 vector encoding His-MAPK. His-MAPK was purified by Ni-affinity chromatography. Cat#27-4949-01, Pharmacia, Alameda, Calif., as described herein. • 5. Sheep anti mouse IgG: Jackson laboratories, West Grove, Pa. Catalog, #515-006-008, Lot#28563 • 6. RAF-1 protein kinase specific antibody: URP2653 from UBI. • 7. Coating buffer: PBS; phosphate buffered saline, GIBCO-BRL, Gaithersburg, Md. • 8. Wash buffer: TBST-50 mM Tris/HCL pH 7.2, 150 mM NaCl, 0.1% Triton X-100 • 9. Block buffer: TBST, 0.1% ethanolamine pH 7.4 • 10. DMSO, Sigma, St. Louis, Mo. • 11. Kinase buffer (KB): 20 mM Hepes/HC1 pH 7.2, 150 mM NaCl, 0.1% Triton X-100, 1 mM PMSF, 5 mg/L Aprotenin, 75 μM sodium ortho vanadate, 0.5 MM DTT and 10 mM MgCl2. • 12. ATP mix: 100 mM MgCl2, 300 μM ATP, 10 μCi γ-^33P ATP (Dupont-NEN)/mL. • 13 Stop solution: 1% phosphoric acid; Fisher, Pittsburgh, Pa. • 14. Wallac Cellulose Phosphate Filter mats; Wallac, Turku, Finnland. • 15. Filter wash solution: 1% phosphoric acid, Fisher, Pittsburgh, Pa. • 16. Tomtec plate harvester, Wallac, Turku, Finnland. • 17. Wallac beta plate reader #1205, Wallac, Turku, Finnland. • 18. NUNC 96-well V bottom polypropylene plates for compounds Applied Scientific Catalog #AS-72092. Procedure
# All of the following steps were conducted at room temperature unless specifically indicated. • 1. ELISA plate coating: ELISA wells are coated with 100 μL of Sheep anti mouse affinity purified antiserum (1 μg/100 μL coating buffer) over night at 4° C. ELISA plates can be used for two weeks when stored at 4° C. • 2. Invert the plate and remove liquid. Add 100 μL of blocking solution and incubate for 30 min. • 3. Remove blocking solution and wash four times with wash buffer. Pat the plate on a paper towel to remove excess liquid. • 4. Add 1 μg of antibody specific for RAF-1 to each well and incubate for 1 hour. Wash as described in step 3. • 5. Thaw lysates from RAS/RAF infected Sf9 cells and dilute with TBST to 10 μg/100 μL. Add 10 μg of diluted lysate to the wells and incubate for 1 hour. Shake the plate during incubation. Negative controls receive no lysate. Lysates from RAS/RAF infected Sf9 insect cells are prepared after cells are infected with recombinant baculoviruses at a MOI of 5 for each virus, and harvested 48 hours later. The cells are washed once with PBS and lysed in RIPA buffer. Insoluble material is removed by centrifugation (5 min at 10,000×g). Aliquots of lysates are frozen in dry ice/ethanol and stored at −80° C. until use. • 6. Remove non-bound material and wash as outlined above (step 3). • 7. Add 2 μg of T-MEK and 2 μg of His-MAEPK per well and adjust the volume to 40 μL with kinase buffer. Methods for purifying T-MEK and MAPK from cell extracts are provided herein by example. • 8. Predilute compounds (stock solution 10 mg/mL DMSO) or extracts 20 fold in TBST plus 1% DMSO. Add 5 μL of the prediluted compounds/extracts to the wells described in step 6. Incubate for 20 min. Controls receive no drug. • 9. […]
pIC50 (RAF-1),melting point,SMILES
4.59,,"Nc1ncnc2cccc(Sc3ccccc3)c12 [Compound A-3, 4-Amino-5-phenylthioquinazoline]"
< 4.00,,"Cc1ccc(Sc2cccc3nc(N)nc(N)c23)cc1 [Compound A-4, 2,4-Diamino-5-(4-methylphenylthio)quinazoline]"
< 4.00,,"Nc1nc(N)c2c(Sc3ccc(Cl)cc3)cccc2n1 [Compound A-5, 2,4-Diamino-5-(4-chlorophenylthio)quinazoline]"
< 4.00,,"Nc1nc(N)c2c(Oc3cccc(C(F)(F)F)c3)cccc2n1 [Compound A-11, 2,4-Diamino-5-(3-trifluoromethylphenoxy)quinazoline]"
< 4.00,190 to 191 °C,"Nc1nc(-c2ccccc2)nc2cccc(Oc3ccccc3)c12 [Compound A-12, 4-Amino-2-phenyl-5-phenoxyquinazoline]"
7.00,188 to 190 °C,"Nc1ncnc2cccc(Oc3ccc(F)cc3)c12 [Compound A-13, 4-Amino-5-(4-fluorophenoxy)quinazoline]"
4.61 and 4.24,,"CN(C)c1cccc(Oc2cccc3nc(N)nc(N)c23)c1 [Compound A-14, 2,4-Diamino-5-(3-dimethylaminophenoxy)quinazoline]"
6.10,,"COc1ccc(Oc2cccc3ncnc(N)c23)cc1 [Compound A-15, 4-Amino-5-(4-methoxyphenoxy)quinazoline]"
,279 to 283 °C (dec.),"Nc1nc(N)c2c(Nc3ccccc3)cccc2n1 [Compound A-35, 2,4-Diamino-5-anilinoquinazoline]"
